Source: patent US10821115B2, “Compounds that inhibit Mcl-1 protein” (priority 2017, dated 2020)
Read-outs that look alike come from different tables or passages of the source.

Assays:
[1] = target: recombinant human Mcl-1 (residues 171-327) / Bim interaction (Homo sapiens (Human), UniProt Q07820); experiment: biochemical; format: binding; settings: TR-FRET, Mcl-1(171-327) / biotin-Bim (51-76); read-out: Mcl-1 HTRF IC50
[2] = tested on: human multiple myeloma cell line, OPM-2; experiment: Cell viability assay (OPM-2 10 FBS), CellTiter-Glo; format: cell-based
In short: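 Cells were seeded at 3000 cells/well in RPMI 1640 with 10% FBS and exposed to serially diluted compounds for 16 h at 37 °C, 5% CO2.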

[3] = Homo sapiens, OPM-2, 16 h, read-out: OPM-2 10% FBS IC50 IP, OPM-2 cells, 10% FBS, 16 h, CellTiter-Glo
[4] = read-out: OPM-2 10% FBS IC50 IP, OPM-2 cells, 10% FBS, 16 h, CellTiter-Glo

Sequence of recombinant human Mcl-1 (residues 171-327) / Bim interaction (Q07820 171-327): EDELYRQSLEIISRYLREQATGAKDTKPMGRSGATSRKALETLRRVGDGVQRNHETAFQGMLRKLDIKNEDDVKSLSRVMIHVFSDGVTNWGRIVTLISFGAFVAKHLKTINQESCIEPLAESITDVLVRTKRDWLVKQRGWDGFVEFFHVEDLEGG

SMILES | IC50 [1] [nM] | IC50 [2, 3] [nM] | IC50 [2, 4] [nM]
CO[C@@]1(CC=C(C)C)/C=C/C[C@H](C)[C@@H](C)S(=O)(=O)NC(=O)c2ccc3c(c2)N(C[C@@H]2CC[C@H]21)C[C@@]1(CCCc2cc(Cl)ccc21)CO3 [Example 100447, (1S,3′R,6′R,7′S,8′E,11′S,12′R)-6-chloro-7′-methoxy-11′,12′-dimethyl-7′-(3-methyl-2-buten-1-yl)-3,4-dihydro-2H,15′H-spiro[naphthalene-1,22′-[20]oxa[13]thia[1,14]diazatetracyclo [14.7.2.0~3,6~.0~19,24~]pentacosa[8,16,18,24]tetraen]-15′-one 13′,13′-dioxide] | 0.05 | 184 | 
C[C@@H]1[C@@H](C)CCC[C@@](O)(CCN2CCCCC2)[C@@H]2CC[C@H]2CN2C[C@@]3(CCCc4cc(Cl)ccc43)COc3ccc(cc32)C(=O)NS1(=O)=O [Example 100092, (1S,3′R,6′R,7′R,11′S,12′R)-6-chloro-7′-hydroxy-11′,12′-dimethyl-7′-(2-(1-piperidinyl)ethyl)-3,4-dihydro-2H,15′H-spiro[naphthalene-1,22′-[20]oxa[13]thia[1,14]diazatetracyclo [14.7.2.0~3,6~.0~19,24~]pentacosa[16,18,24]trien]-15′-one 13′,13′-dioxide] | 4.02 |  | 2210
CC[C@@H]1CCCC[C@](COC)(OC)[C@@H]2CC[C@H]2CN2C[C@@]3(CCCc4cc(Cl)ccc43)COc3ccc(cc32)C(=O)NS1(=O)=O [Example 100037, (1S,3′R,6′R,7′S,12′R)-6-chloro-12′-ethyl-7′-methoxy-7′-(methoxymethyl)-3,4-dihydro-2H,15′H-spiro[naphthalene-1,22′-[20]oxa[13]thia[1,14]diazatetracyclo [14.7.2.0~3,6~.0~19,24~]pentacosa[16,18,24]trien]-15′-one 13′,13′-dioxide] | 1.8 | 1920 | 
CO[C@@]1(CCN2CC(C)(N(C)C)C2)/C=C/C[C@H](C)[C@@H](C)S(=O)(=O)NC(=O)c2ccc3c(c2)N(C[C@@H]2CC[C@H]21)C[C@@]1(CCCc2cc(Cl)ccc21)CO3 [Example 100431, (1S,3′R,6′R,7′S,8′E,11′S,12′R)-6-chloro-7′-(2-(3-(dimethylamino)-3-methyl-1-azetidinyl)ethyl)-7′-methoxy-11′,12′-dimethyl-3,4-dihydro-2H,15′H-spiro[naphthalene-1,22′-[20]oxa[13]thia[1,14]diazatetracyclo [14.7.2.0~3,6~.0~19,24~]pentacosa[8,16,18,24]tetraen]-15′-one 13′,13′-dioxide] | 0.043 | 290 | 
CO[C@@]1(c2cncc(CN(C)C)c2)/C=C/C[C@H](C)[C@@H](C)S(=O)(=O)NC(=O)c2ccc3c(c2)N(C[C@@H]2CC[C@H]21)C[C@@]1(CCCc2cc(Cl)ccc21)CO3 [Example 100554, (1S,3′R,6′R,7′S,8′E,11′S,12′R)-6-chloro-7′-(5-((dimethylamino)methyl)-3-pyridinyl)-7′-methoxy-11′,12′-dimethyl-3,4-dihydro-2H,15′H-spiro[naphthalene-1,22′-[20]oxa[13]thia[1,14]diazatetracyclo [14.7.2.0~3,6~.0~19,24~]pentacosa[8,16,18,24]tetraen]-15′-one 13′,13′-dioxide] | 0.231 | 519 | 
C[C@@H]1[C@@H](C)C/C=C/[C@](O)(C(F)(F)C(=O)N(C)C)[C@@H]2CC[C@H]2CN2C[C@@]3(CCCc4cc(Cl)ccc43)COc3ccc(cc32)C(=O)NS1(=O)=O [Example 100413, 2-((1S,3′R,6′R,7′R,8′E,11′S,12′R)-6-chloro-7′-hydroxy-11′,12′-dimethyl-13′,13′-dioxido-15′-oxo-3,4-dihydro-2H-spiro[naphthalene-1,22′-[20]oxa[13]thia[1,14]diazatetracyclo [14.7.2.0~3,6~.0~19,24~]pentacosa[8,16,18,24]tetraen]-7′-yl)-2,2-difluoro-N,N-dimethylacetamide] | 0.228 | 556 | 
CO[C@]1(C)CCC[C@H](C)[C@@H](C)S(=O)(=O)NC(=O)c2ccc3c(c2)N(C[C@@H]2CC[C@H]21)C[C@@]1(CCCc2cc(Cl)ccc21)CO3 (single isomer, unassigned) [Example 100211] | 1.44 |  | 4780
